Target: plasminogen activator (Pla) (Yersinia pestis, UniProt P17811)
Assay type: biochemical

Sequence of plasminogen activator (Pla) (P17811 21-312 limits assumed): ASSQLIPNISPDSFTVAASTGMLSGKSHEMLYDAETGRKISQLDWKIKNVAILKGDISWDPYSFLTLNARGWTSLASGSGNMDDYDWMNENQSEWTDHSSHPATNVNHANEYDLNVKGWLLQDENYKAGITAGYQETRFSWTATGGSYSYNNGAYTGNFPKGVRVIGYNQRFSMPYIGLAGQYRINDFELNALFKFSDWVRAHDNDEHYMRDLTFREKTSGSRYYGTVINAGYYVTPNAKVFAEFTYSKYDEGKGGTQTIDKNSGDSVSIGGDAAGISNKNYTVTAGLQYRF

pepstatin A
block of plasminogen activator activity: did not block

Source: patent US9187523B2 (priority 2006, dated 2015)
